Measurements as given in US8974807B2, “Active agent combinations” (Bayer Cropscience AG, priority 2000, dated 2015).

Assays:
[1] = tested on: whitefly (Trialeurodes vaporariorum); test: Trialeurodes test (Example 1), sprayed red sage infested by all stages of whitefly; assay type: in vivo; conditions: 100 g/ha, sprayed on Lantana camara at 7-day intervals; evaluation 15 days after the second treatment
Protocol: (§1) To produce a suitable preparation of active compound, a commercial formulation of active compound or active compound combination is mixed with water until the desired concentration is reached.
Red sage (Lantana camara) which is heavily infested by all stages of the whitefly (Trialeurodes vaporariorum) is sprayed in intervals of 7 days in each case with a preparation of active compound at the desired application rate.
Evaluation is carried out 15 days after the second treatment. 100% means that all flies have been killed, whilst 0% means that none of the flies have been killed.

[2] = tested on: whitefly (Trialeurodes vaporariorum); test: Trialeurodes test (Example 2), sprayed red sage infested by whitefly, evaluated at 15, 19 and 25 days; assay type: in vivo; conditions: 100 g/ha
Protocol: as §1
Red sage (Lantana camara) which is heavily infested by the whitefly (Trialeurodes vaporariorum) is sprayed in intervals of 7 days in each case with a preparation of active compound at the desired application rate.
Evaluation is carried out 15, 19 and 25 days after the second treatment. 100% means that all flies have been […], whilst 0% means that none of the flies have been killed.

What does the source list for N#C/N=C1\SCCN1Cc1ccc(Cl)nc1 [(16) thiacloprid, thiacloprid]?
Kill rate in % [1]: 72.8%; Kill rate in % 15 days after the second treatment ([2]; 15 days after the second treatment): 72.8%; Kill rate in % 19 days after the second treatment ([2]; 19 days after the second treatment): 39.5%; Kill rate in % 25 days after the second treatment ([2]; 25 days after the second treatment): 0%
